According to patent publication US20130156825A1, “Modafinil Formulations” (CEPHALON, INC., priority 2002, published 2013):

Experiments:
[1] = PSD of modafinil used to prepare the modafinil tablets; type: physicochemical; conditions: modafinil used for 200 mg tablets, method not stated
Protocol: Tablets containing 200 mg of modafinil having PSD as provided in table 2 below (values are in microns) were prepared: […]

[2] = PSD of modafinil particles, Malvern laser technique; type: physicochemical
Protocol: (§1) Modafinil PSD was measured in '517 U.S. patent by using a Hiac/Royco machine. This machine uses a light obscuration technique for the PSD measurement. We repeated the measurements of the PSD on a Hiac/Royco machine and compared it with a different laser beam obscuration technique offered by the commonly used Malvern machine. Both methods use light obscuration as means to evaluate the PSD, but they work on different principles. The results confirmed the validity of our PSD measurements. Both methods gave similar values. Both methods also gave PSD results that are far away from the scope of the values claimed by the '517 U.S. Patent. The following table summarizes the data. Values are reported in microns. The term D(v,0.5) denotes the diameter of the largest particle found in 50% of the particles sorted in increasing order. The other two terms refer to 85% and 95% of the particles. The terms mean, median and mode are used in their regular statistical meaning.

[3] = PSD of modafinil particles, Hiac/Royco light obscuration; type: physicochemical; conditions: Hiac
Protocol: as §1

[4] = '517 U.S. Patent; cited from earlier work

NC(=O)C[S+]([O-])C(c1ccccc1)c1ccccc1 (centres unmarked) [Batch A, 2-[(diphenylmethyl)sulfinyl]acetamide]
D(v, 0.5) ([1]; listed as A): 107 microns
D(v, 0.85) ([1]; listed as A): 235 microns
D(v, 0.95) ([1]; listed as A): 318 microns
Median ([1]; listed as A): 107 microns
D(v, 0.5) ([2]; listed as A): 107 microns
D(v, 0.85) ([2]; listed as A): 235 microns
D(v, 0.95) ([2]; listed as A): 318 microns
Median particle size ([2]; listed as A): 107 microns
D(v, 0.5) ([3]; listed as A): 133 microns
D(v, 0.85) ([3]; listed as A): 229 microns
D(v, 0.95) ([3]; listed as A): 282 microns
Mean particle size ([3]; listed as A): 51 microns
Median particle size ([3]; listed as A): 134 microns
mode particle size ([3]; listed as A): 196 microns

NC(=O)C[S+]([O-])C(c1ccccc1)c1ccccc1 (centres unmarked) [Batch D, 2-[(diphenylmethyl)sulfinyl]acetamide]
D(v, 0.5) ([1]; listed as D): 95 microns
D(v, 0.85) ([1]; listed as D): 217 microns
D(v, 0.95) ([1]; listed as D): 297 microns
Median ([1]; listed as D): 95 microns

NC(=O)C[S+]([O-])C(c1ccccc1)c1ccccc1 (centres unmarked) [“early” batches]
median value of modafinil particles [4]: 94-143 μ
size below which 95% of the particles lie [4]: 220-280 μ

NC(=O)C[S+]([O-])C(c1ccccc1)c1ccccc1 (centres unmarked) [Batch C, 2-[(diphenylmethyl)sulfinyl]acetamide]
D(v, 0.5) ([1]; listed as C): 128 microns
D(v, 0.85) ([1]; listed as C): 228 microns
D(v, 0.95) ([1]; listed as C): 303 microns
Median ([1]; listed as C): 128 microns
D(v, 0.5) ([2]; listed as C): 128 microns
D(v, 0.85) ([2]; listed as C): 228 microns
D(v, 0.95) ([2]; listed as C): 303 microns
Median particle size ([2]; listed as C): 128 microns
D(v, 0.5) ([3]; listed as C): 148 microns
D(v, 0.85) ([3]; listed as C): 231 microns
D(v, 0.95) ([3]; listed as C): 277 microns
Mean particle size ([3]; listed as C): 51 microns
Median particle size ([3]; listed as C): 148 microns
mode particle size ([3]; listed as C): 193 microns

NC(=O)C[S+]([O-])C(c1ccccc1)c1ccccc1 (centres unmarked) [“late” batches]
median value of modafinil particles [4]: 31-50 μ
size below which 95% of the particles lie [4]: 110-150 μ

NC(=O)C[S+]([O-])C(c1ccccc1)c1ccccc1 (centres unmarked) [Batch B, 2-[(diphenylmethyl)sulfinyl]acetamide]
D(v, 0.5) ([1]; listed as B): 85 microns
D(v, 0.85) ([1]; listed as B): 215 microns
D(v, 0.95) ([1]; listed as B): 293 microns
Median ([1]; listed as B): 85 microns
D(v, 0.5) ([2]; listed as B): 85 microns
D(v, 0.85) ([2]; listed as B): 215 microns
D(v, 0.95) ([2]; listed as B): 293 microns
Median particle size ([2]; listed as B): 85 microns
D(v, 0.5) ([3]; listed as B): 103 microns
D(v, 0.85) ([3]; listed as B): 194 microns
D(v, 0.95) ([3]; listed as B): 265 microns
Mean particle size ([3]; listed as B): 40 microns
Median particle size ([3]; listed as B): 104 microns
mode particle size ([3]; listed as B): 148 microns
